This note sets out measurements from patent publication US3957790A, “N-(3,3-diphenylpropyl)-n'-aralkyl-substituted piperazines” (Tokyo Tanabe Company, Ltd., priority 1974, dated 1976).

One series concerns coronary blood flow. Briefly: coronary blood flow increasing action, measured in rabbits by the Langendorff method. Also noted: species or system rabbit. From the text: The above-mentioned prior known derivatives of piperazine, however, have defects in that they are either too weak in the coronary blood flow increasing action [ED50 (mg)-the dose which can increase the coronary blood flow by 50%] or too strong in toxicity to be put to practical use as remedies for humans. Indeed, only one compound, trimetazidine dihydrochloride, [1-(2,3,4-trimethoxybenzyl)piperazine dihydrochloride)], is now being manufactured as a remedy for humans.
(§1) To illustrate one of the pharmacological effects of these compounds comparative experiments were carried out on the coronary blood flow increasing action, which was measured in rabbits by the Langendorff method, and on acute toxicity using the said trimetazidine as control, with the results being shown in Table 1. The Langendorff method was carried out according to the method described in Folia Pharmacologica Japonica, vol. 56, p. 1387 (1960), and the acute toxicity was measured by injection into the peritoneal cavities of mice.

Series [1] can be described thus: acute toxicity by injection into the peritoneal cavities of mice. Particulars: in vivo. The method, then:
as §1

Counter-ions that a name gives are not always drawn.

What is called LD50 is the dose at which mortality reaches 50%. A high value points to lower toxicity. Turning to `COc1cc(CN2CCN(CCC(c3ccccc3)c3ccccc3)CC2)cc(OC)c1OC.Cl.Cl` [1-(3,3-diphenylpropyl)-4-(3,4,5-trimethoxybenzyl)piperazine dihydrochloride], the “ED50 (coronary blood flow increasing action; dose which can increase the coronary blood flow by 50%)” value in the series on coronary blood flow is on record as 0.06 mg. The molecule further came in with a median lethal dose (LD50) in series [1] (ip mouse) of 89 mg/kg.
`COc1ccc(CN2CCN(CCC(c3ccccc3)c3ccccc3)CC2)cc1OC.Cl.Cl` [1-(3,3-diphenylpropyl)-4-(3,4-dimethoxybenzyl)piperazine dihydrochloride]: the “ED50 (coronary blood flow increasing action; dose which can increase the coronary blood flow by 50%)” value with coronary blood flow was 0.05 mg. In series [1] (ip mouse), this molecule had a median lethal dose (LD50) of 66 mg/kg.
In the case of `COc1ccc(CN2CCN(CCC(c3ccccc3)c3ccccc3)CC2)c(OC)c1OC` [1-(3,3-diphenylpropyl)-4-(2,3,4-trimethoxybenzyl)-piperazinedihydrochloride], the “ED50 (coronary blood flow increasing action; dose which can increase the coronary blood flow by 50%)” value in the series on coronary blood flow was found to be 0.02 mg. This molecule also showed a 50% lethal dose (LD50) in series [1] (mouse, ip) of 100 mg/kg.
Turning to `COc1ccc(CN2CCNCC2)c(OC)c1OC.Cl.Cl` [Trimetazidine, 1-(2,3,4-trimethoxybenzyl)piperazine dihydrochloride, reference compound], in the series with coronary blood flow, the “ED50 (coronary blood flow increasing action; dose which can increase the coronary blood flow by 50%)” value is 0.80 mg. The same molecule displayed a median lethal dose (LD50) in series [1] (ip mouse) of 390 mg/kg.
For `Cl.Cl.c1ccc(CN2CCN(CCC(c3ccccc3)c3ccccc3)CC2)cc1` [1-(3,3-diphenylpropyl)-4-benzylpiperazine dihydrochloride], in that order: 0.08 mg and 101 mg/kg.
